Laboratory results as given in patent publication US10538535B2, “Antitumoral compounds” (priority 2017, dated 2020).
Read-outs that look alike come from different tables or passages of the source.

Key:
[1] = MTD (Maximum Tolerated Dose) determination, single iv administration; format: in vivo; conditions: female, mouse, in vivo; mice; iv/SD
Text: Female CD-1 or Athymic Nude-Fox1 nu/nu mice (Envigo) were utilized for all experiments. […] Animals were acclimated for five days prior to being individually tattoo-identified. Animal protocols were reviewed and approved according to the regional Institutional Animal Care and Use Committees.
Mice were randomly allocated into experimental groups and intravenously administered, once for the MTD (Maximum Tolerated Dose) determination or one administration a week during three consecutive weeks, for the MTMD (Maximum Tolerated Multiple Dose) determination study. The animals were administered with white formulation or with compound dissolved in the experimental formulation at different concentrations. The volume administered was always 10 mL/kg. Once administered, animals were monitored for clinical signs of systemic toxicity, changes in body weight and mortality up to 14 days after the administration.

Description for A2780 tumors: (§1) Female athymic nu/nu mice (Harlan Laboratories Models, S. L. Barcelona, Spain or Envigo, Spain) were utilized for all experiments. Animal were housed in individually ventilated cages Sealsafe® Plus, Techniplast S.P.A.), up to ten per cage on a 12-hour light-dark cycle at 21-23° C. and 40-60% humidity. […] Animals were acclimated for at least 5 days prior to tumor implantation with a tumor cell suspension.
Culture cells were passaged every 3 to 5 days upon reaching confluence. Each animal was subcutaneously implanted (on the right flank using 26 G needle and a 1 cc syringe) at 4-6 weeks of age with 10×10^6 A2780 cells suspended in 0.05 mL of a solution consisting of 50% Matrigel® (Corning Incorporated Life Sciences) and 50% medium without serum or antibiotics.
(§2) Treatment tolerability was assessed by monitoring body weight evolution, clinical signs of systemic toxicity, as well as evidences of local damage in the injection site.
(§3) In xenograft studies with other cell lines: • Tumor volume was calculated using the equation (a·b^2)/2, where a: length (longest diameter) and b: width (shortest diameter) were measured in mm by using digital caliper (Fowler Sylvac, S235PAT).
(§4) Treatments producing >20% lethality and/or 20% net body weight loss were considered toxic.
Description for HGC27 tumors: as §1
HGC27 cells were maintained in vitro at 37° C. with 5% CO2 in Iscove's Modified Dulbecco's Medium (Sigma Aldrich, Co). Culture cells were passage every 3 to 5 days on reaching confluence. Each animal was subcutaneously implanted (on the right flank using 26 G needle and a 1 cc syringe) at 4-6 weeks of age with 5×10^6 HGC-27 cells suspended in 0.05 mL of a solution consisting of 50% Matrigel® (Corning Incorporated Life Sciences), 50% medium without serum or antibiotics.
as §2, §4
Description for MDA-MB-231 tumors: as §1
MDA-MB-231 cells were maintained in vitro at 37° C. with 5% CO2 in Dulbecco's Modified Eagle's Medium (Sigma-Aldrich, Co). Culture cells were passaged every 3 to 5 days upon reaching confluence.
as §2, §3, §4

With `COc1c(C)cc2c(c1O)[C@@H]1[C@@H]3[C@@H]4SC[C@]5(N[C@H](C)Cc6c5[nH]c5ccccc65)C(=O)OC[C@@H](c5c6c(c(C)c(OC(C)=O)c54)OCO6)N3[C@@H](O)[C@H](C2)N1C` [C] the MTD at 14 days [1] was 3 mg/kg, the “Median Tumor Volume” value (MDA-MB-231 tumors; iv, 3 mg/kg, 0 h) was 149.4 mm^3 and the “Median Tumor Volume” value (MDA-MB-231 tumors; iv, 3 mg/kg, 48 h) was 217.1 mm^3. The “Median Tumor Volume” value (MDA-MB-231 tumors; iv, 3 mg/kg, 120 h) was 281.3 mm^3, the “Median Tumor Volume” value (MDA-MB-231 tumors; iv, 3 mg/kg, 168 h) was 338.6 mm^3 and the “Median Tumor Volume” value (MDA-MB-231 tumors; iv, 3 mg/kg, 336 h) was 436.9 mm^3. For the same molecule, the “Median Tumor Volume” value (MDA-MB-231 tumors; iv, 3 mg/kg, 384 h) was 585.7 mm^3, the “Median Tumor Volume” value (MDA-MB-231 tumors; iv, 3 mg/kg, 456 h) was 774.7 mm^3 and the “Median Tumor Volume” value (MDA-MB-231 tumors; iv, 3 mg/kg, 504 h) was 965.9 mm^3. For the same molecule, the “Median Tumor Volume” value (MDA-MB-231 tumors; iv, 3 mg/kg, 552 h) was 1215.2 mm^3, the “Median Tumor Volume” value (MDA-MB-231 tumors; iv, 3 mg/kg, 672 h) was 1785.3 mm^3 and the “Median Tumor Volume” value (MDA-MB-231 tumors; iv, 3 mg/kg, 720 h) was 2037.1 mm^3. The “Median Tumor Volume” value (A2780 tumors; iv, 3 mg/kg, 0 h) was 169.6 mm^3, the “Median Tumor Volume” value (A2780 tumors; iv, 3 mg/kg, 48 h) was 206.3 mm^3 and the “Median Tumor Volume” value (A2780 tumors; iv, 3 mg/kg, 120 h) was 372.7 mm^3. For the same molecule, the “Median Tumor Volume” value (A2780 tumors; iv, 3 mg/kg, 168 h) was 607.6 mm^3, the “Median Tumor Volume” value (A2780 tumors; iv, 3 mg/kg, 336 h) was 1293.9 mm^3 and the “Median Tumor Volume” value (A2780 tumors; iv, 3 mg/kg, 384 h) was 1683.5 mm^3. The “Median Tumor Volume” value (A2780 tumors; iv, 3 mg/kg, 456 h) was 2137.5 mm^3, the “Median Tumor Volume” value (HGC27 tumors; iv, 3 mg/kg, 0 h) was 195.0 mm^3 and the “Median Tumor Volume” value (HGC27 tumors; iv, 3 mg/kg, 48 h) was 391.0 mm^3. The “Median Tumor Volume” value (HGC27 tumors; iv, 3 mg/kg, 120 h) was 578.6 mm^3, the “Median Tumor Volume” value (HGC27 tumors; iv, 3 mg/kg, 168 h) was 708.2 mm^3 and the “Median Tumor Volume” value (HGC27 tumors; iv, 3 mg/kg, 336 h) was 1496.8 mm^3. The “Median Tumor Volume” value (HGC27 tumors; iv, 3 mg/kg, 384 h) was 1690.6 mm^3, the “Median Tumor Volume” value (HGC27 tumors; iv, 3 mg/kg, 456 h) was 2004.0 mm^3 and the “Median Tumor Volume” value (HGC27 tumors; iv, 3 mg/kg, 504 h) was 1741.4 mm^3. The “Median Tumor Volume” value (HGC27 tumors; iv, 3 mg/kg, 552 h) was 2056.4 mm^3.
In the case of `COc1c(C)cc2c(c1O)[C@@H]1[C@@H]3[C@@H]4SC[C@]5(N[C@@H](C)Cc6c5[nH]c5ccccc65)C(=O)OC[C@@H](c5c6c(c(C)c(OC(C)=O)c54)OCO6)N3[C@@H](O)[C@H](C2)N1C` [D], the “Median Tumor Volume” value (MDA-MB-231 tumors; Table 22, Day 0, iv Days 0, 7, 14) is reported as 129.5 mm^3, the “Median Tumor Volume” value (MDA-MB-231 tumors; Table 22, Day 7, iv Days 0, 7, 14) is reported as 147.9 mm^3 and the “Median Tumor Volume” value (MDA-MB-231 tumors; Table 22, Day 14, iv Days 0, 7, 14) is reported as 186.4 mm^3. For the same molecule, the “Median Tumor Volume” value (MDA-MB-231 tumors; Table 22, Day 21, iv Days 0, 7, 14) was 136.5 mm^3, the “Median Tumor Volume” value (MDA-MB-231 tumors; Table 22, Day 28, iv Days 0, 7, 14) was 290.7 mm^3 and the “Median Tumor Volume” value (MDA-MB-231 tumors; Table 22, Day 35, iv Days 0, 7, 14) was 431.7 mm^3. For the same molecule, the “Median Tumor Volume” value (MDA-MB-231 tumors; Table 22, Day 42, iv Days 0, 7, 14) was 770.1 mm^3, the “Median Tumor Volume” value (MDA-MB-231 tumors; Table 22, Day 49, iv Days 0, 7, 14) was 970.0 mm^3 and the “Median Tumor Volume” value (MDA-MB-231 tumors; Table 22, Day 56, iv Days 0, 7, 14) was 1461.9 mm^3. For the same molecule, the “Median Tumor Volume” value (MDA-MB-231 tumors; Table 22, Day 63, iv Days 0, 7, 14) was 1526.4 mm^3, the “Median Tumor Volume” value (MDA-MB-231 tumors; iv, 0.5 mg/kg, 0 h) was 149.6 mm^3 and the “Median Tumor Volume” value (MDA-MB-231 tumors; iv, 0.5 mg/kg, 48 h) was 217.2 mm^3. For the same molecule, the “Median Tumor Volume” value (MDA-MB-231 tumors; iv, 0.5 mg/kg, 120 h) was 284.5 mm^3, the “Median Tumor Volume” value (MDA-MB-231 tumors; iv, 0.5 mg/kg, 168 h) was 310.0 mm^3 and the “Median Tumor Volume” value (MDA-MB-231 tumors; iv, 0.5 mg/kg, 336 h) was 237.7 mm^3. The “Median Tumor Volume” value (MDA-MB-231 tumors; iv, 0.5 mg/kg, 384 h) was 261.2 mm^3, the “Median Tumor Volume” value (MDA-MB-231 tumors; iv, 0.5 mg/kg, 456 h) was 251.3 mm^3 and the “Median Tumor Volume” value (MDA-MB-231 tumors; iv, 0.5 mg/kg, 504 h) was 219.9 mm^3. For the same molecule, the “Median Tumor Volume” value (MDA-MB-231 tumors; iv, 0.5 mg/kg, 552 h) was 221.8 mm^3, the “Median Tumor Volume” value (MDA-MB-231 tumors; iv, 0.5 mg/kg, 672 h) was 320.3 mm^3 and the “Median Tumor Volume” value (MDA-MB-231 tumors; iv, 0.5 mg/kg, 720 h) was 401.6 mm^3. For the same molecule, the “Median Tumor Volume” value (MDA-MB-231 tumors; iv, 0.5 mg/kg, 840 h) was 629.2 mm^3, the “Median Tumor Volume” value (MDA-MB-231 tumors; iv, 0.5 mg/kg, 888 h) was 670.7 mm^3 and the “Median Tumor Volume” value (MDA-MB-231 tumors; iv, 0.5 mg/kg, 960 h) was 669.9 mm^3. For the same molecule, the “Median Tumor Volume” value (MDA-MB-231 tumors; iv, 0.5 mg/kg, 1056 h) was 798.1 mm^3, the “Median Tumor Volume” value (MDA-MB-231 tumors; iv, 0.5 mg/kg, 1128 h) was 857.7 mm^3 and the “Median Tumor Volume” value (MDA-MB-231 tumors; iv, 0.5 mg/kg, 1176 h) was 870.7 mm^3. For the same molecule, the “Median Tumor Volume” value (MDA-MB-231 tumors; iv, 0.5 mg/kg, 1224 h) was 925.8 mm^3, the “Median Tumor Volume” value (MDA-MB-231 tumors; iv, 0.5 mg/kg, 1296 h) was 1005.4 mm^3 and the “Median Tumor Volume” value (MDA-MB-231 tumors; iv, 0.5 mg/kg, 1344 h) was 1064.2 mm^3. The “Median Tumor Volume” value (MDA-MB-231 tumors; iv, 0.5 mg/kg, 1392 h) was 1235.6 mm^3, the “Median Tumor Volume” value (MDA-MB-231 tumors; iv, 0.5 mg/kg, 1464 h) was 1367.8 mm^3 and the “Median Tumor Volume” value (MDA-MB-231 tumors; iv, 0.5 mg/kg, 1512 h) was 1553.7 mm^3. The “Median Tumor Volume” value (A2780 tumors; Table 26, Day 0, iv Days 0, 7, 14) was 190.1 mm^3, the “Median Tumor Volume” value (A2780 tumors; Table 26, Day 3, iv Days 0, 7, 14) was 319.6 mm^3 and the “Median Tumor Volume” value (A2780 tumors; Table 26, Day 5, iv Days 0, 7, 14) was 514.4 mm^3. The “Median Tumor Volume” value (A2780 tumors; Table 26, Day 7, iv Days 0, 7, 14) was 897.4 mm^3, the “Median Tumor Volume” value (A2780 tumors; Table 26, Day 10, iv Days 0, 7, 14) was 1239.8 mm^3 and the “Median Tumor Volume” value (A2780 tumors; Table 26, Day 12, iv Days 0, 7, 14) was 1656.2 mm^3. The “Median Tumor Volume” value (A2780 tumors; Table 26, Day 14, iv Days 0, 7, 14) was 1951.7 mm^3, the “Median Tumor Volume” value (A2780 tumors; Table 26, Day 17, iv Days 0, 7, 14) was 2121.7 mm^3 and the “Median Tumor Volume” value (A2780 tumors; Table 26, Day 19, iv Days 0, 7, 14) was 2068.6 mm^3. The “Median Tumor Volume” value (A2780 tumors; iv, 0.5 mg/kg, 0 h) was 168.8 mm^3, the “Median Tumor Volume” value (A2780 tumors; iv, 0.5 mg/kg, 48 h) was 225.7 mm^3 and the “Median Tumor Volume” value (A2780 tumors; iv, 0.5 mg/kg, 120 h) was 256.6 mm^3. The “Median Tumor Volume” value (A2780 tumors; iv, 0.5 mg/kg, 168 h) was 473.8 mm^3, the “Median Tumor Volume” value (A2780 tumors; iv, 0.5 mg/kg, 336 h) was 1129.3 mm^3 and the “Median Tumor Volume” value (A2780 tumors; iv, 0.5 mg/kg, 384 h) was 1198.6 mm^3. The “Median Tumor Volume” value (A2780 tumors; iv, 0.5 mg/kg, 456 h) was 1649.6 mm^3, the “Median Tumor Volume” value (A2780 tumors; iv, 0.5 mg/kg, 504 h) was 2025.0 mm^3 and the “Median Tumor Volume” value (HGC27 tumors; Table 28, Day 0, iv Days 0, 7, 14) was 157.4 mm^3. For the same molecule, the “Median Tumor Volume” value (HGC27 tumors; Table 28, Day 2, iv Days 0, 7, 14) was 327.6 mm^3, the “Median Tumor Volume” value (HGC27 tumors; Table 28, Day 5, iv Days 0, 7, 14) was 439.6 mm^3 and the “Median Tumor Volume” value (HGC27 tumors; Table 28, Day 7, iv Days 0, 7, 14) was 418.7 mm^3. The “Median Tumor Volume” value (HGC27 tumors; Table 28, Day 9, iv Days 0, 7, 14) was 567.9 mm^3, the “Median Tumor Volume” value (HGC27 tumors; Table 28, Day 12, iv Days 0, 7, 14) was 537.0 mm^3 and the “Median Tumor Volume” value (HGC27 tumors; Table 28, Day 14, iv Days 0, 7, 14) was 654.6 mm^3. For the same molecule, the “Median Tumor Volume” value (HGC27 tumors; Table 28, Day 16, iv Days 0, 7, 14) was 672.4 mm^3, the “Median Tumor Volume” value (HGC27 tumors; Table 28, Day 19, iv Days 0, 7, 14) was 843.0 mm^3 and the “Median Tumor Volume” value (HGC27 tumors; Table 28, Day 21, iv Days 0, 7, 14) was 842.7 mm^3. The “Median Tumor Volume” value (HGC27 tumors; Table 28, Day 23, iv Days 0, 7, 14) was 963.7 mm^3, the “Median Tumor Volume” value (HGC27 tumors; Table 28, Day 26, iv Days 0, 7, 14) was 1203.3 mm^3 and the “Median Tumor Volume” value (HGC27 tumors; Table 28, Day 28, iv Days 0, 7, 14) was 1589.7 mm^3. For the same molecule, the “Median Tumor Volume” value (HGC27 tumors; Table 28, Day 30, iv Days 0, 7, 14) was 1777.6 mm^3, the “Median Tumor Volume” value (HGC27 tumors; Table 28, Day 33, iv Days 0, 7, 14) was 2146.2 mm^3 and the “Median Tumor Volume” value (HGC27 tumors; iv, 0.5 mg/kg, 0 h) was 194.0 mm^3. The “Median Tumor Volume” value (HGC27 tumors; iv, 0.5 mg/kg, 48 h) was 324.2 mm^3, the “Median Tumor Volume” value (HGC27 tumors; iv, 0.5 mg/kg, 120 h) was 561.6 mm^3 and the “Median Tumor Volume” value (HGC27 tumors; iv, 0.5 mg/kg, 168 h) was 504.2 mm^3. The “Median Tumor Volume” value (HGC27 tumors; iv, 0.5 mg/kg, 336 h) was 1056.8 mm^3, the “Median Tumor Volume” value (HGC27 tumors; iv, 0.5 mg/kg, 384 h) was 1440.2 mm^3 and the “Median Tumor Volume” value (HGC27 tumors; iv, 0.5 mg/kg, 456 h) was 1717.9 mm^3. The “Median Tumor Volume” value (HGC27 tumors; iv, 0.5 mg/kg, 504 h) was 2043.4 mm^3.
